The values that follow come from patent US8143293B2, “Kinase inhibitors useful for the treatment of myleoprolific diseases and other proliferative diseases” (Deciphera Pharmaceuticals, LLC, priority 2007, dated 2012).

Positions count from the first letter of the chain named. Where only a bound is given, the exact number is not on record here.

For assay [1], the target named is T1, BaF3 cells transfected with wild type p210 BCR-Abl (Homo sapiens, UniProt P00519).
T1 construct: fused on or other part: P11274 (Breakpoint cluster region protein)
Description: Ba/F3 p210 whole cell proliferation assay. The following applies: 72 hours, Cell Titer Blue; read-out: Whole Cell Antiproliferation IC50, Ba/F3 p210 whole cell proliferation assay. In kind it is cell-based. The protocol:
(§1) BaF3 cells (parental or transfected with the following: wild type p210 BCR-Abl and T315I p210 BCR-Abl was obtained from Professor Richard Van Etten (New England Medical Center, Boston, Mass.). Briefly, cells were grown in RPMI 1640 supplemented with 10% characterized fetal bovine serum (HyClone, Logan, Utah) at 37 degrees Celsius, 5% CO2, 95% humidity. Cells were allowed to expand until reaching 80% saturation at which point they were subcultured or harvested for assay use.
(§2) A serial dilution of test compound was dispensed into a 96 well black clear bottom plate (Corning, Corning, N.Y.). For each cell line, three thousand cells were added per well in complete growth medium. Plates were incubated for 72 hours at 37 degrees Celsius, 5% CO2, 95% humidity. At the end of the incubation period Cell Titer Blue (Promega, Madison, Wis.) was added to each well and an additional 4.5 hour incubation at 37 degrees Celsius, 5% CO2, 95% humidity was performed. Plates were then read on a BMG Fluostar Optima (BMG, Durham, N.C.) using an excitation of 544 nm and an emission of 612 nm. Data was analyzed using Prism software (Graphpad, San Diego, Calif.) to calculate IC50's.
For orientation: Alamar Blue is a resazurin reagent that responds to reducing activity.

The target of assay [2] is T2, BaF3 cells transfected with T315I p210 BCR-Abl (Homo sapiens, UniProt P00519, T315I, cells depend on it).
T2 construct: fused on or other part: P11274 (Breakpoint cluster region protein)
Description: Ba/F3 p210 T315I whole cell proliferation assay. In kind it is cell-based. To be noted: 72 hours, Cell Titer Blue; read-out: Whole Cell Antiproliferation IC50, Ba/F3 p210 T315I whole cell proliferation assay. On the procedure: as §1, §2

Assay [3] deals with T3, Abl kinase (SEQ ID NO: 1) (Homo sapiens, UniProt P00519).
T3 construct: purchased deCode Genetics
T3 sequence (P00519 with tags, fused parts or gaps): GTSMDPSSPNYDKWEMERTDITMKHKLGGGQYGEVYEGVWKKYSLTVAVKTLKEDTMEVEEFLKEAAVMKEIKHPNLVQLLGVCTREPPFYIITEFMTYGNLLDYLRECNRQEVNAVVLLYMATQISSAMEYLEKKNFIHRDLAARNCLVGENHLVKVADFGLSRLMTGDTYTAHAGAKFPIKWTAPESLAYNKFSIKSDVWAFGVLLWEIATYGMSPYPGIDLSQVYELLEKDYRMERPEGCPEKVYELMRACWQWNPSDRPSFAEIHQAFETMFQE
Kind of assay: Abl kinase (SEQ ID NO:1) assay, pyruvate kinase/lactate dehydrogenase coupled. To be noted: 2 h preincubation, ATP 500 μM; read-out: Biochemical IC50, Abl Enzyme Assay. The protocol: Abl Kinase (SEQ ID NO:1) Assay
Activity of Abl kinase (SEQ ID NO: 1) was determined by following the production of ADP from the kinase reaction through coupling with the pyruvate kinase/lactate dehydrogenase system (e.g., Schindler, et al. Science (2000) 289, 1938-1942). In this assay, the oxidation of NADH (thus the decrease at A340 nm) was continuously monitored spectrophometrically. The reaction mixture (100 μl) contained Abl kinase (1 nM. Abl from deCode Genetics), peptide substrate (EAIYAAPFAKKK, 0.2 mM), MgCl2 (10 mM), pyruvate kinase (4 units), lactate dehydrogenase (0.7 units), phosphoenol pyruvate (1 mM), and NADH (0.28 mM) in 90 mM Tris buffer containing 0.2% octyl-glucoside and 3.5% DMSO, pH 7.5. Test compounds were incubated with Abl (SEQ ID NO:1) and other reaction reagents at 30° C. for 2 h before ATP (500 μM) was added to start the reaction. The absorption at 340 nm was monitored continuously for 2 hours at 30° C. on Polarstar Optima plate reader (BMG). The reaction rate was calculated using the 1.0 to 2.0 h time frame. Percent inhibition was obtained by comparison of reaction rate with that of a control (i.e. with no test compound). IC50 values were calculated from a series of percent inhibition values determined at a range of inhibitor concentrations using software routines as implemented in the GraphPad Prism software package.

The target of assay [4] is T4, T315I Abl kinase (SEQ ID NO:2) (Homo sapiens, UniProt P00519, T315I).
T4 construct: purchased deCode Genetics
T4 sequence (P00519 with tags, fused parts or gaps T315I): T3 sequence (P00519 with tags, fused parts or gaps) with T94I
Description: T315I Abl kinase (SEQ ID NO:2) assay, pyruvate kinase/lactate dehydrogenase coupled. The following applies: 1 h preincubation, ATP 500 μM; read-out: Biochemical IC50, Abl T315I Enzyme Assay. The protocol:
Abl Kinase (SEQ ID NO:2) Assay
Activity of T315I Abl kinase (SEQ ID NO:2) was determined by following the production of ADP from the kinase reaction through coupling with the pyruvate kinase/lactate dehydrogenase system (e.g., Schindler, et al. Science (2000) 289, 1938-1942). In this assay, the oxidation of NADH (thus the decrease at A340 nm) was continuously monitored spectrophometrically. The reaction mixture (100 μl) contained Abl kinase (4.4 nM, […] Abl from deCode Genetics), peptide substrate (EAIYAAPFAKKK, 0.2 mM), MgCl2 (10 mM), pyruvate kinase (4 units), lactate dehydrogenase (0.7 units), phosphoenol pyruvate (1 mM), and NADH (0.28 mM) in 90 mM Tris buffer containing 0.2% octyl-glucoside and 1% DMSO, pH 7.5. Test compounds were incubated with T315I Abl (SEQ ID NO:2) and other reaction reagents at 30° C. for 1 h before ATP (500 μM) was added to start the reaction. The absorption at 340 nm was monitored continuously for 2 hours at 30° C. on Polarstar Optima plate reader (BMG). The reaction rate was calculated using the 1.0 to 2.0 h time frame. Percent inhibition was obtained by comparison of reaction rate with that of a control (i.e. with no test compound). IC50 values were calculated from a series of percent inhibition values determined at a range of inhibitor concentrations using software routines as implemented in the GraphPad Prism software package.

Broadly, the IC50 is the midpoint of a concentration-inhibition curve. Consider `Cc1cc(NC(=O)Nc2ccc(Oc3ccnc(-c4cnn(C)c4)c3)cc2F)nn1C(C)(C)C` [Example 38, 1-(1-tert-butyl-5-methyl-1H-pyrazol-3-yl)-3-(2-fluoro-4-(2-(1-methyl-1H-pyrazol-4-yl)pyridin-4-yloxy)phenyl)urea], for which the values for the GI50 in assay [1] and in assay [2] were under 1 µM and under 100 µM, respectively. The IC50 was under 0.1 µM in assay [3] and under 1 µM in assay [4].
`Cc1ncc(C(F)(F)F)cc1NC(=O)Nc1ccc(Oc2ccnc(-c3cnn(C)c3)c2)cc1F` [Example 37, 1-(2-fluoro-4-(2-(1-methyl-1H-pyrazol-4-yl)pyridin-4-yloxy)phenyl)-3-(2-methyl-5-(trifluoromethyl)pyridin-3-yl)urea]: the GI50 in assay [1] and in assay [2] was under 0.1 µM each time. Moreover, the half-maximal inhibitory concentration (IC50) in assay [3] and in assay [4] was under 0.1 µM each time.
For the molecule `Cn1cc(-c2cc(Oc3ccc(NC(=O)NC4CCN(C(C)(C)C)C4)c(F)c3)ccn2)cn1` (stereo not drawn) [Example 36, 1-(1-tert-butylpyrrolidin-3-yl)-3-(2-fluoro-4-(2-(1-methyl-1H-pyrazol-4-yl)pyridin-4-yloxy)phenyl)urea], the GI50 in assay [1] is under 10 µM; in assay [2], under 100 µM. Besides, the concentration for half-maximal inhibition (IC50) in assay [3] is under 1 µM; in assay [4], under 10 µM.
As for `Cc1c(NC(=O)Nc2ccc(Oc3ccnc(-c4cnn(C)c4)c3)cc2F)cnn1C1CCCC1` [Example 23, 1-(1-cyclopentyl-5-methyl-1H-pyrazol-4-yl)-3-(2-fluoro-4-(2-(1-methyl-1H-pyrazol-4-yl)pyridin-4-yloxy)phenyl)urea], the GI50 in assay [1] is under 0.1 µM; in assay [2] it was under 1 µM. Also, the IC50 in assay [3] is under 0.1 µM.
`CC(C)n1cnc(NC(=O)Nc2ccc(Oc3ccnc(-c4cnn(C)c4)c3)cc2F)c1` [Example 34, 1-(2-fluoro-4-(2-(1-methyl-1H-pyrazol-4-yl)pyridin-4-yloxy)phenyl)-3-(1-isopropyl-1H-imidazol-4-yl)urea]: the results for the GI50 in assay [1] and in assay [2] were under 0.1 µM and under 1 µM, respectively. Also, the IC50 in assay [3] and in assay [4] was under 0.1 µM in each case.
On to `Cn1cc(-c2cc(Oc3ccc(NC(=O)Nc4cnc(C(C)(C)C)o4)c(F)c3)ccn2)cn1` [Example 26, 1-(2-tert-butyloxazol-5-yl)-3-(2-fluoro-4-(2-(1-methyl-1H-pyrazol-4-yl)pyridin-4-yloxy)phenyl)urea], for which the 50% inhibitory concentration (IC50) in assay [3] was under 0.1 µM.
As for `Cn1cc(-c2cc(Oc3ccc(NC(=O)Nc4nc5ccc(F)cc5s4)c(F)c3)ccn2)cn1` [Example 29, 1-(2-fluoro-4-(2-(1-methyl-1H-pyrazol-4-yl)pyridin-4-yloxy)phenyl)-3-(6-fluorobenzo[d]thiazol-2-yl)urea], the GI50 in assay [1] is under 1 µM; in assay [2], under 100 µM. Besides, the 50% inhibitory concentration (IC50) in assay [3] was under 0.1 µM.
On to `Cn1cc(-c2cc(Oc3ccc(NC(=O)Nc4cc(C5CC5)nn4C)c(F)c3)ccn2)cn1` [Example 33, 1-(3-cyclopropyl-1-methyl-1H-pyrazol-5-yl)-3-(2-fluoro-4-(2-(1-methyl-1H-pyrazol-4-yl)pyridin-4-yloxy)phenyl)urea], for which the GI50 in assay [1] and in assay [2] was under 1 µM each time. Moreover, the IC50 in assay [3] and in assay [4] was under 1 µM in each case.
On to `Cn1cc(-c2cc(Oc3ccc(NC(=O)NC4CC(=O)N(C(C)(C)C)C4)c(F)c3)ccn2)cn1` (stereo not drawn) [Example 35, 1-(1-tert-butyl-5-oxopyrrolidin-3-yl)-3-(2-fluoro-4-(2-(1-methyl-1H-pyrazol-4-yl)pyridin-4-yloxy)phenyl)urea], for which the GI50 in assay [1] was under 1 µM; in assay [2], under 100 µM. In addition, the IC50 was under 1 µM in assay [3] and under 10 µM in assay [4].
On to `CCc1cncc(NC(=O)Nc2ccc(Oc3ccnc(-c4cnn(C)c4)c3)cc2F)c1` [Example 32, 1-(5-ethylpyridin-3-yl)-3-(2-fluoro-4-(2-(1-methyl-1H-pyrazol-4-yl)pyridin-4-yloxy)phenyl)urea], for which the GI50 in assay [1] and in assay [2] was under 0.1 µM throughout. Besides, the IC50 in assay [3] and in assay [4] was under 0.1 µM each time.
Regarding `Cc1c(C(C)(C)C)noc1NC(=O)Nc1ccc(Oc2ccnc(-c3cnn(C)c3)c2)cc1F` [Example 31, 1-(3-tert-butyl-4-methylisoxazol-5-yl)-3-(2-fluoro-4-(2-(1-methyl-1H-pyrazol-4-yl)pyridin-4-yloxy)phenyl)urea], the GI50 in assay [1] and in assay [2] was under 0.1 µM throughout. Besides, the IC50 in assay [3] and in assay [4] was under 0.1 µM in each case.
